Assay results published in patent US7635686B2, “Therapeutically useful triethyleneglycol cholesteryl oligonucleotides” (Bioniche Life Sciences, Inc., priority 2001, dated 2009).
{TEG-Chol} = cholesteryl attached through a triethylene glycol (TEG) linker

Key:
[1] = tested on: EL-4 cells; experiment: Apoptosis by phosphatidylserine redistribution (annexin V flow cytometry) in EL-4 cells; assay type: cell-based, murine; settings: 24 hours; for Percentage of positive cells for phosphatidylserine (cells in apoptosis) in EL-4 cells: untreated cells 7%; for Induction of apoptosis in EL-4 cells (in words): translocation of phosphatidylserine, up to 53.0 μM
Protocol: Redistribution of plasma membrane phosphatidylserine is a characteristic of cells undergoing apoptosis (Martin et al., J. Exp. Med., 182:1545, 1995). The redistribution of phosphatidylserine in the plasma membrane during apoptosis was measured by flow cytometry using FITC (fluorescein isothiocyanate)-conjugated annexin V (BD Pharmingen, San Diego, Calif.). MEG-01 cells, a human chronic myelogeneous leukemia cell line positive for the Philadelphia chromosome and having a BCR-ABL gene fusion, were incubated at 2.5×10^5 cells/ml for 48 hours with 5.3, 26.5 and 53.0 μM final concentrations of SEQ ID NO:1, SEQ ID NO:2, SEQ ID NO:5, SEQ ID NO:6 and cholesteryl-TEG phosphoramidite molecule. The percentage of cells in apoptosis after exposure to the SEQ ID NOs:1, 2, 5, 6, or cholesteryl-TEG phosphoramidite treatment is reported in Table 2. The percentage of apoptosis in untreated MEG-01 cells was 12%.
EL-4 cells, a murine T lymphoma cell line, were incubated at 2.5×10^5 cells/ml for 24 hours with 0.53, 5.3 and 53.0 μM concentrations of SEQ ID NO:3, SEQ ID NO:7 or cholesteryl-TEG phosphoramidite. The percentage of cells in apoptosis after exposure to SEQ ID NO:3, SEQ ID NO:7 or cholesteryl-TEG phosphoramidite treatment is reported in Table 3. The percentage of apoptosis in untreated EL-4 cells was 7%.

[2] = tested on: EL-4 cells; experiment: Activation of caspase 3 in EL-4 cells (PE-antibody flow cytometry); assay type: cell-based, murine; settings: 53 μM, 72 hrs; for Percentage of cells containing activated caspase-3: EL-4 cells, untreated 3
Protocol: EL-4 cells (2.5×10^5 cells/ml) were incubated for 72 hrs with 0 μM (control), 53 μM of SEQ ID NO:3 or 53 μM of SEQ ID NO:7. After incubation, both control and treated cells were washed, fixed, permeabilized and incubated with a Phycoerythrin (PE)-conjugated antibody that recognizes the active catalytic unit of caspase 3 (Clone: C92-605; BD Pharmingen, San Diego, Calif., USA) using the conditions recommended by the manufacturer. Fluorescence associated with active caspase 3 was analyzed by flow cytometry on a FACSCALIBUR using the program CellQUEST (both from Becton Dickinson, San Jose, Calif., USA).

[3] = tested on: EL-4 cells; experiment: Cleavage of poly(ADP-ribose) polymerase in EL-4 cells (FITC-antibody flow cytometry); assay type: cell-based, murine; settings: 53 μM, 72 h; for Percentage of cells containing cleaved PARP: EL-4 cells, untreated 1
Protocol: EL-4 cells (2.5×10^5 cells/ml) were incubated for 72 h with 0 μM (control), 53 μM of SEQ ID NO:3 or 53 μM of SEQ ID NO:7. After incubation, both control and treated cells were washed, fixed, permeabilized and incubated with an FITC-conjugated antibody that recognizes specifically the 85 kDa fragments of cleaved PARP (BioSource, Camarillo, Calif., USA) using the conditions recommended by the manufacturer. Fluorescence associated with cleaved PARP was analyzed by flow cytometry on a FACSCalibur using the program CellQUEST (both from Becton Dickinson). The percentage of cells containing cleaved PARP in EL-4 cells treated with 53 μM final concentration of sequences is shown in Table 5.

[4] = tested on: HIG-82 cells; experiment: HIG-82 synovial cell proliferation (MTT reduction); assay type: cell-based, rabbit; settings: 53 μM, 48 hours; for Inhibition of HIG-82 cell proliferation, inhibition (%): MTT
In short: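 Adherent synovial cells at 10×10^5 cells/ml exposed 48 h to […] at 53 μM final. Proliferation measured by MTT reduction read at 570 nm and expressed as percentage inhibition.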

[5] = tested on: MDA-MB-231 (MDA-231) cells; experiment: Cellular proliferation of MDA-231 cells (Trypan blue exclusion count); assay type: cell-based, human; settings: MDA-231, 53 μM; for Effect on cellular proliferation (in words): 72 hrs; for Percentage of changes in cellular proliferation compared to controls (mean ± s.d.): cultured for 3 days, + stimulation, − inhibition, three independent assays
Protocol: (§1) Either 20×10^3 MDA-MB-231 (MDA-231) or Hs578T cells were plated into individual wells of 24-well plates in regular culture medium (RCM) presence or absence (control) of 53 μM (final concentration) of SEQ ID NO:3, SEQ ID NO:7, 53 μM cholesteryl-TEG phosphoramidite, or corresponding control media (regular culture medium (RCM) for SEQ ID NO:3, RCM with the same amount of water as the amount added with the SEQ ID NO:7, and RCM with the same amount of acetonitrile as the amount added with cholesteryl-TEG phosphoramidite). Cells were cultured for 72 hrs, removed with trypsin and counted with an hemocytometer using the Trypan blue exclusion technique. Results of three independent assays (mean and standard deviation (s.d.) of percentage of changes compared to controls) are shown in Table 9.

[6] = tested on: Hs578T cells; experiment: Cellular proliferation of Hs578T cells (Trypan blue exclusion count); assay type: cell-based, human; settings: 53 μM; for Effect on cellular proliferation (in words): 72 hrs; for Percentage of changes in cellular proliferation compared to controls (mean ± s.d.): cultured for 3 days, + stimulation, − inhibition, three independent assays
Protocol: as §1

[7] = tested on: MCF-7 cells; experiment: Treatment of pre-formed 3-dimensional MCF-7 structures on MATRIGEL; assay type: cell-based, human; settings: MCF-7, 53 μM, repeated every 3-4 days up to 19-20 days, FIG. 3
Protocol: MCF-7 cells were cultured in regular culture medium (RCM), trypsinized and counted. 150×10^3 of MCF-7 cells, in wells of 24-well plates coated with 350 μl of MATRIGEL®. After the formation of 3-dimensional structures during 48 hrs without any treatment, the medium was changed and the structures were exposed to a final concentration of 53 μM of SEQ ID NO:3, 53 μM of SEQ ID NO:7, 53 μM of cholesteryl-TEG phosphoramidite, RCM or their respective control media (RCM with water, RCM with DMSO, or RCM with acetonitrile). The treatments were repeated every 3-4 days until a maximum time in culture of 19-20 days. The experiment was repeated three times. Digital photographs of the cells in the 24-well plates were taken using a Nikon Coolpix 990 digital camera connected to a Nikon inverted microscope model TMS.

## 5′ OH-CCACCC(TEG-cholesteryl) 3′ (3' {TEG-Chol}, sugars by position and backbone not given here) [SEQ ID NO:7]
[1]; 0.53 μM
  Percentage of positive cells for phosphatidylserine (cells in apoptosis) in EL-4 cells: 8%
[1]; 5.3 μM
  Percentage of positive cells for phosphatidylserine (cells in apoptosis) in EL-4 cells: 11%
[1]; 53.0 μM
  Percentage of positive cells for phosphatidylserine (cells in apoptosis) in EL-4 cells: 49%
[1]
  Induction of apoptosis in EL-4 cells (in words): capacity to induce apoptosis
[2]
  Activation of caspase-3 in EL-4 cells (in words): capacity to induce apoptosis as measured by the activation of caspase-3
  Percentage of cells containing activated caspase-3: 38%
[3]
  Cleavage of PARP in EL-4 cells (in words): capacity to induce apoptosis as measured by cleavage of PARP
  Percentage of cells containing cleaved PARP: 84%
[4]
  Inhibition of proliferation of synovial HIG-82 cells (in words): capacity to inhibit the cellular proliferation
  Inhibition of HIG-82 cell proliferation, inhibition (%): 53%
[5]
  Effect on cellular proliferation (in words): capacity to inhibit cellular proliferation
  Percentage of changes in cellular proliferation compared to controls (mean ± s.d.): −97.9 ± 2.5%
[6]
  Effect on cellular proliferation (in words): capacity to inhibit cellular proliferation
  Percentage of changes in cellular proliferation compared to controls (mean ± s.d.): −91.8 ± 10.5%
[7]
  Effect on pre-formed 3-dimensional structures on MATRIGEL: disrupted the growth pattern of the structures

## 5′ OH-CCACCC-OH 3′ (listed as DNA, chemistry not fully specified) [SEQ ID NO:3]
[1]; 0.53 μM
  Percentage of positive cells for phosphatidylserine (cells in apoptosis) in EL-4 cells: 7%
[1]; 5.3 μM
  Percentage of positive cells for phosphatidylserine (cells in apoptosis) in EL-4 cells: 7%
[1]; 53.0 μM
  Percentage of positive cells for phosphatidylserine (cells in apoptosis) in EL-4 cells: 7%
[1]
  Induction of apoptosis in EL-4 cells (in words): neither SEQ ID NO:3 nor cholesteryl-TEG phosphoramidite caused apoptosis
[2]
  Activation of caspase-3 in EL-4 cells (in words): inactive
  Percentage of cells containing activated caspase-3: 4%
[3]
  Cleavage of PARP in EL-4 cells (in words): inactive
  Percentage of cells containing cleaved PARP: 1%
[4]
  Inhibition of proliferation of synovial HIG-82 cells (in words): did not inhibit proliferation
  Inhibition of HIG-82 cell proliferation, inhibition (%): 0%
[5]
  Effect on cellular proliferation (in words): did not significantly affect cellular proliferation
  Percentage of changes in cellular proliferation compared to controls (mean ± s.d.): +6.9 ± 5%
[6]
  Effect on cellular proliferation (in words): did not significantly affect cellular proliferation
  Percentage of changes in cellular proliferation compared to controls (mean ± s.d.): −6.5 ± 5%
[7]
  Effect on pre-formed 3-dimensional structures on MATRIGEL: did not affect the 3-dimensional structures
